Measured values: PMC11249646, “Small-Molecule Disruptors of the Interaction between Calcium- and Integrin-Binding Protein 1 and Integrin αIIbβ3 as Novel Antiplatelet Agents” (ACS Pharmacology & Translational Science, 2024)
Read-outs that look alike come from different tables or passages of the source.

Key:
[1] = biological target: T1, CIB1 and αIIb interaction (GST-CIB1 : F-αIIb peptide) (Homo sapiens, UniProt Q99828); test: FP assay, 384-well format (screen); type: binding; design: 384-well SCREEN Efficacy (%): concentration or dose not given beside the values
T1 construct: made in house; host or cells: BL-21 plus RIL cells (E. coli)
T1 sequence (Q99828 1-191): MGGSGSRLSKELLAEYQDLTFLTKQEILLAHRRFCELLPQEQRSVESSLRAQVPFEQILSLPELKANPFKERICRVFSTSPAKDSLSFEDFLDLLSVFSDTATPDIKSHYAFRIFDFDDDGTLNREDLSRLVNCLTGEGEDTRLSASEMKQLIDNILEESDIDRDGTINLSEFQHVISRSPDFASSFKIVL

[2] = biological target: T2, CIB1 and αIIb interaction (CIB1-GST : F-αIIb peptide) (Homo sapiens, UniProt Q99828); test: FP assay, 1536-well qHTS format (primary and confirmatory screen); type: binding
T2 construct: made in house; host or cells: BL-21 plus RIL cells (E. coli)
T2 sequence (Q99828 1-191): T1 sequence (Q99828 1-191)

[3] = biological target: T3, GST-CIB1 : F-αIIb peptide (Homo sapiens, UniProt Q99828); test: FP assay in the presence of glutathione (GSH), thiol reactivity; type: binding
T3 construct: made in house; host or cells: BL-21 plus RIL cells (E. coli)
T3 sequence (Q99828 1-191): T1 sequence (Q99828 1-191)

[4] = biological target: T4, GST-CIB1 : F-scrambled peptide (Homo sapiens, UniProt Q99828); test: FP scrambled-peptide counter screen, 384-well format; type: binding; settings: F-scrambled peptide
T4 construct: made in house; host or cells: BL-21 plus RIL cells (E. coli)
T4 sequence (Q99828 1-191): T1 sequence (Q99828 1-191)

[5] = test system: P-selectin (CD62P) exposure on human platelets; test: Thrombin-induced P-selectin (CD62P) exposure, flow cytometry; type: cell-based; settings: various doses
Description: […]. These findings indicate that through the utilization of this FP assay, we successfully identified inhibitors of platelet function, which may warrant further assessment for their potential as antiplatelet agents.
Figure 6 Effect of compounds on human platelet activation. Representative platelet aggregation tracings of washed human platelet suspensions pretreated for 30 min at 37 °C with vehicle (DMSO) or compounds at indicated concentrations followed by activation with thrombin (0.03–0.1 U/mL). Panel (A): NCGC00071855. Panel (B–D): NCGC00351170. Panel (E): CD62P exposure was in the presence of NCGC00351170. Data represents mean ± SEM, n = 4 individual experiments; ns = non significant *P < 0.05, ***P < 0.001, ****P < 0.0001.
Whole blood was drawn by venipuncture from healthy adult volunteers (of both gender and race) with informed consent. Approval was obtained from the institutional review boards of Thomas Jefferson University, according to the Declaration of Helsinki. Blood was collected in acidified citrate dextrose as an anticoagulant. Platelet-rich plasma (PRP) and washed platelets were prepared, as previously described.[44] Platelet aggregation was performed using washed platelet suspensions containing 2 × 10^8 platelets/mL using a Chrono-Log Lumi-Aggregometer (Chrono-Log), as described previously.[11] Aggregation traces were recorded by using Aggrolink software (Chrono-Log). […]

CIB1-(His)6 = biological target: T5, CIB1-(His)6 (Homo sapiens, UniProt Q99828); test: Microscale thermophoresis (MST) protein and small-molecule binding; settings: MST; fluorescently labeled CIB1-(His)6 50 nM; read-out: equilibrium dissociation constant (Kd)
T5 construct: made in house
T5 sequence (Q99828 1-191): T1 sequence (Q99828 1-191)
Description: Determining a direct measurement of a molecule’s binding interaction with its target is a vital parameter for characterizing a chemical probe. We employed microscale thermophoresis (MST) for this purpose, leveraging its sensitivity and capacity to deliver quantitative data on the binding interaction.[35] […] We began by testing increasing amounts of the compound(s) and incubating them with the fluorescently labeled CIB1-(His)6, followed by the detection of the MST traces on the NT automated instrument (for more details see Materials and Methods Section). […] We were able to rule out compound interference with the histidine tag on CIB1 and/or the fluorophore used for the MST assay by testing the compounds with a fluorescently labeled hexa-histidine peptide (Figure S8B).
The binding affinity of the compounds to the CIB1-(His)6 protein was evaluated using microscale thermophoresis (MST). The recombinant protein was labeled with a fluorophore using Monolith His-tag labeling RED-tris-NTA second Generation kit (Nanotemper Technologies, Munich, Germany) following the manufacturer’s protocol. Compounds were titrated in a 2-fold dilution series (16 points, final concentration range of 6.1 nM to 200 μM) and incubated with the same volume of 50 nM (final concentration; 25 nM RED-tris-NTA) labeled recombinant protein for 30 min at RT (20 μL final assay volume). […] The dissociation constant (Kd) values were calculated by fitting the thermophoresis signal at 20 s of the thermograph using the MO Affinity Analysis software (Nanotemper Technologies, Munich, Germany) and confirmed using GraphPad Prism.

[6] = In vitro ADME: solubility; type: physicochemical; settings: read-out: Solubility
washed human platelets = test: Human platelet aggregation assay (thrombin-induced); type: cell-based
Outline: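 Washed platelets (2 × 10^8/mL) from citrated blood of healthy volunteers, pretreated 30 min at 37 °C with compound or DMSO vehicle, then activated with 0.03 U/mL thrombin. Aggregation traces recorded by aggregometry; P-selectin (CD62P) exposure measured by flow cytometry.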

CIB1 and αIIb peptide = biological target: T6, CIB1 and αIIb peptide (Homo sapiens, UniProt Q99828); test: Intrinsic tryptophan fluorescence (ITF) assay
T6 sequence (Q99828 1-191): T1 sequence (Q99828 1-191)

For `COc1ccccc1C(=O)c1no[n+]([O-])c1C(=O)c1ccccc1OC.O=C(O)C(F)(F)F` [NCGC00351170-01], the IC50 ([1]; 384-well FP assay, Table 1, read-out: FP assay IC50) was 4.19 µM, the “384-well SCREEN Efficacy (%)” value ([1]; F-αIIb peptide) was 57% and the “384-well SCREEN Confirm?” value ([1]; F-αIIb peptide, YES/NO) was “YES”. The IC50 ([1]; F-αIIb peptide, read-out: 384-well SCREEN IC50) was 7.9 µM, the IC50 ([1]; quoted in text for comparison with MST EC50, read-out: potency in the 384-well FP assays) was about 4 µM and the “Confirm and Selective?” value ([1]; selective toward αIIb: negative curve class and/or IC50 ratio of >3-fold and/or >2-fold efficacy vs scrambled peptide) was “Inconclusive”. The “CONFIRMATORY SCREEN Confirm?” value ([2]; confirmatory screen, YES/NO call) was “YES”, the “CONFIRMATORY SCREEN Curve Class” value ([2]; confirmatory screen, qHTS curve class, negative sign = inhibitory curve) was -1.2 and the “CONFIRMATORY SCREEN Efficacy (%)” value ([2]; confirmatory screen, negative = inhibition) was -45%. For the same compound, the IC50 ([2]; confirmatory screen, read-out: CONFIRMATORY SCREEN IC50) was 5.6 µM, the “Efficacy (%)” value ([2]; qHTS FP screen hits, Table S2, negative = inhibition) was -37% and the “Curve Class” value ([2]; qHTS FP screen hits, Table S2, one class per curve where COUNT > 1, negative sign = inhibitory curve) was -1.2. The IC50 ([2]; qHTS FP screen hits, Table S2, read-out: IC50) was 5 µM, the IC50 ([3]; FP assay in the presence of glutathione (GSH +), read-out: GSH (+) Assay IC50) was 1.2 µM and the IC50 ([3]; FP assay without glutathione (GSH -), read-out: GSH (-) Assay IC50) was 4 µM. For the same compound, the “GSH/CIB1 IC50 ratio” value ([3]; ratio of GSH (+) IC50 to GSH (-) IC50) was 0.3, the “GSH Assay Result” value ([3]; thiol reactivity call: No change / Active) was “No change” and the “384-well COUNTERSCREEN Efficacy (%)” value [4] was 34%. For the same compound, the “384-well COUNTERSCREEN Confirm?” value ([4]; *: Curve in opposite direction) was “Inconclusive”, the IC50 ([4]; read-out: 384-well COUNTERSCREEN IC50) was 8.9 µM and the “P-selectin (CD62P) exposure” value [5] was “dose-dependent inhibition of platelet activation”. The Kd (CIB1-(His)6) was 2.9 µM, the solubility [6] was over 52 µg/mL and the “Platelet Aggregation Result” value (washed human platelets; 10 μM compound) was “Active”. For the same compound, the inhibition at 10 µM (washed human platelets; Homo sapiens, Platelet, single concentration of 10 μM (n = 3), thrombin) was 94%, the “lowest concentration required to achieve >95% inhibition of platelet aggregation” value (washed human platelets; dose response, thrombin) was 2 µM and the “Thrombin Assay 10 µM (%)” value (washed human platelets; platelet aggregation inhibition at 10 µM) was 94%. It also gave an IC50 (CIB1 and αIIb peptide) of 15.6 µM.
